Data set [1] has as its target T1, Nodal (Homo sapiens, UniProt Q96S42).
T1 construct: host or cells: added to embryonic carcinoma P19 cells
T1 sequence (Q96S42 238-347): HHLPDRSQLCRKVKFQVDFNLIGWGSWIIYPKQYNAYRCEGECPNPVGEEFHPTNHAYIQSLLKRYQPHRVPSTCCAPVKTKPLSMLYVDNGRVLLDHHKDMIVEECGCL
Description: Inhibition of Nodal-induced Smad2 phosphorylation in P19 cells (Western blot, anti-phospho Smad antibody). The class given is cell-based. The settings on record: for ability to antagonize the signaling function of protein Nodal: carcinoma cells. As for the experimental part: To validate the binding ability of the predicted ligands, we tested the ability of the bicycles to inhibit a known signaling event induced by Nodal. Specifically, we employed Western blot with anti-phospho Smad antibody to detect Nodal-induced phosphorylation of effector protein Smad2 in embryonic carcinoma P19 cells. FIG. 17a describes that treatment of P19 cells with 100 ng/mL Nodal for 1 hour in Dulbecco's Modified Eagles Media (DMEM) supplemented with 2.5% fetal bovine serum (FBS)+7.5% bovine serum albumin (BSA) induces increase in pSmad2 intensity. Nodal-induced increase in pSmad is abrogated when P19 cells are incubated with 100 ng/mL Nodal and known kinase inhibitors SB-431542. […] The bicyclic peptides serve as antagonists of Nodal at 100 micromolar concentration.

Data set [2] is described as follows: in vitro. The settings on record: for remaining at 5 h: isolated enzyme pronase.
Description: The mixture was analyzed by ion-selective LCMS. […] Linear, disulfide and two bicycle compounds made from TSL-1 and TSL-6 linker were incubated with Pronase™ for the indicated period of time (up to 5 hours). The reaction was diluted and analyzed by Ion selective MS-UPLC. The numbers indicate % of intact compound remaining after 5 hours of digestion.
In another rigorous stability test, an aggressive cocktail of endo- and exoproteases (Pronase) were used to digest linear sequence [sequence]

Data on seven molecules can be found in patent US12391939B2, “Genetically-encoded bicyclic peptide libraries” (THE GOVERNORS OF THE UNIVERSITY OF ALBERTA, priority 2018, dated 2025).

Numbered stars: 1 amine (or outer) side, 2 acyl side, 3 side chain; on linkers, the order of the positions; unused ones are H or OH. Bridge positions count the residues as written; N and C are the ends. Ends that are not written are not given here. Peptide text beside a SMILES is read from it. X1 = O=C(C=NOCCCCCCOc1cc(C[*:2])cc(C[*:3])c1)[*:1]; X2 = O=C(C=NOCc1cc(C[*:2])cc(C[*:3])c1)[*:1]; TSL6 = not defined here

Take `NC(=O)c1ccc(-c2nc(-c3ccc4c(c3)OCO4)c(-c3ccccn3)[nH]2)cc1` [SB-431542, reference compound]: the “Nodal-induced increase in pSmad with known kinase inhibitor” value in data set [1] (P19 cells, 100 ng/mL Nodal, inhibitor concentration not given) is “abrogated”.
In general, half-life refers to how long it takes for the measured level to halve. High values mean slow decline, low ones rapid decline. For orientation: share remaining means the share of the starting amount still present when the sample was taken. Lower therefore signals a greater loss. In data set [2] (Streptomyces griseus), `CC(C)C[C@@H]1NC(=O)[C@H](Cc2ccc(O)cc2)NC(=O)[C@@H]2CSCc3cc(cc(c3)CSC[C@@H](C(=O)O)NC(=O)[C@H](CCC(=O)O)NC1=O)CON=CC(=O)N[C@@H](Cc1c[nH]c3ccccc13)C(=O)N[C@@H](CC(=O)O)C(=O)N[C@@H](Cc1ccc(O)cc1)C(=O)N[C@@H](CCCNC(=N)N)C(=O)N[C@@H](CCC(=O)O)C(=O)N2` (WDYRECYLEC-OH; linker N-6-10 via X2; C-terminus assumed) gave a half-life of approximately 24 h. In data set [2], the amount remaining at 5 h stood at 82 ± 13%.
As for `CC(C)C[C@H](NC(=O)[C@H](Cc1ccc(O)cc1)NC(=O)[C@H](CS)NC(=O)[C@H](CCC(=O)O)NC(=O)[C@H](CCCNC(=N)N)NC(=O)[C@H](Cc1ccc(O)cc1)NC(=O)[C@H](CC(=O)O)NC(=O)[C@H](Cc1c[nH]c2ccccc12)NC(=O)[C@@H](N)CO)C(=O)N[C@@H](CCC(=O)O)C(=O)N[C@@H](CS)C(=O)O` [reference compound] (H-SWDYRECYLEC-OH; N-terminus and C-terminus assumed), the fraction remaining at 5 h in data set [2] came out at 0.4 ± 0.1%.
With “SYCKRAHKNC (linker (positions not given here) via TSL6; reading uncertain; also: bicyclised with TSL6 linker) [bicyclic peptide 11]”, the “ability to antagonize the signaling function of protein Nodal” value in data set [1] is on record as “have the ability to antagonize”.
Molecule `CC(C)C[C@@H]1NC(=O)[C@H](Cc2ccc(O)cc2)NC(=O)[C@@H](NC(=O)[C@H](CCC(=O)O)NC(=O)[C@H](CCCNC(=N)N)NC(=O)[C@H](Cc2ccc(O)cc2)NC(=O)[C@H](CC(=O)O)NC(=O)[C@H](Cc2c[nH]c3ccccc23)NC(=O)[C@@H](N)CO)CSSC[C@@H](C(=O)O)NC(=O)[C@H](CCC(=O)O)NC1=O` [reference compound] (H-SWDYRECYLEC-OH; disulfide 7-11; N-terminus and C-terminus assumed) returned an amount remaining at 5 h in data set [2] of 0.9 ± 0.4%.
The same measure, in the same setting: under `CC(C)C[C@@H]1NC(=O)[C@H](Cc2ccc(O)cc2)NC(=O)[C@@H]2CSCc3cc(cc(c3)OCCCCCCON=CC(=O)N[C@@H](Cc3c[nH]c4ccccc34)C(=O)N[C@@H](CC(=O)O)C(=O)N[C@@H](Cc3ccc(O)cc3)C(=O)N[C@@H](CCCNC(=N)N)C(=O)N[C@@H](CCC(=O)O)C(=O)N2)CSC[C@@H](C(=O)O)NC(=O)[C@H](CCC(=O)O)NC1=O` (WDYRECYLEC-OH; linker N-6-10 via X1; C-terminus assumed) stands 68 ± 14%.
With “SPCQRGHMFC (linker (positions not given here) via TSL6; reading uncertain; also: bicyclised with TSL6 linker) [bicyclic peptide 7]”, in data set [1], the “ability to antagonize the signaling function of protein Nodal” value is recorded as “have the ability to antagonize”.
